Experiments:
[1] = Inhibition of human beta-glucosidase
[2] = target: Alpha-glucosidase (Saccharomyces cerevisiae S288c, UniProt P53341+P38158+P07265); test: Inhibition of yeast alpha-glucosidase assessed as reduction of p-nitrophenol release using p-nitrophenyl glycoside as substrate by spectrophotometric analysis; assay type: protein assay
[3] = Inhibition of rice alpha-glucosidase assessed as reduction of p-nitrophenol release using p-nitrophenyl glycoside as substrate by spectrophotometric analysis; set-up: species or system Oryza sativa
[4] = Inhibition of rat intestinal maltase assessed as D-glucose release using maltose as substrate at pH 6.8 by colorimetric method
[5] = Inhibition of almond beta-glucosidase assessed as reduction of p-nitrophenol release using p-nitrophenyl glycoside as substrate by spectrophotometric analysis; set-up: species or system Prunus dulcis
[6] = Inhibition of bovine liver beta-glucosidase assessed as reduction of p-nitrophenol release using p-nitrophenyl glycoside as substrate by spectrophotometric analysis; set-up: species or system Bos taurus
[7] = target: Alpha-galactosidase (Coffea arabica) (UniProt Q42656); test: Inhibition of coffee beans alpha-galactosidase assessed as reduction of p-nitrophenol release using p-nitrophenyl glycoside as substrate at 1000 uM by spectrophotometric analysis relative to control
Sequence of Alpha-galactosidase (Coffea arabica) (Q42656 16-378 limits assumed): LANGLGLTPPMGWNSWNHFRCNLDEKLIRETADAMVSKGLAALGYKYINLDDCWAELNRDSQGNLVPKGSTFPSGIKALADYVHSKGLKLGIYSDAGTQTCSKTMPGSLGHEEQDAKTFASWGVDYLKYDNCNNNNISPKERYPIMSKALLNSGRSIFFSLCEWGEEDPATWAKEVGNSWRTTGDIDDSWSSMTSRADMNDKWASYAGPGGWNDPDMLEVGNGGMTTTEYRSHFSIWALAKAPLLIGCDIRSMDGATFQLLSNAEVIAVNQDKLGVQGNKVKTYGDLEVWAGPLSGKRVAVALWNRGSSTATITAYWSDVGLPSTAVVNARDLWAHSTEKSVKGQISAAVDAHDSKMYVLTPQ

[8] = Inhibition of bovine liver beta-galactosidase assessed as reduction of p-nitrophenol release using p-nitrophenyl glycoside as substrate by spectrophotometric analysis; set-up: species or system Bos taurus
[9] = target: T1, Alpha-mannosidase (Canavalia ensiformis) (UniProt C0HJB3); test: Inhibition of jack bean alpha-mannosidase assessed as reduction of p-nitrophenol release using p-nitrophenyl glycoside as substrate at 1000 uM by spectrophotometric analysis relative to control
T1 sequence (whole entry): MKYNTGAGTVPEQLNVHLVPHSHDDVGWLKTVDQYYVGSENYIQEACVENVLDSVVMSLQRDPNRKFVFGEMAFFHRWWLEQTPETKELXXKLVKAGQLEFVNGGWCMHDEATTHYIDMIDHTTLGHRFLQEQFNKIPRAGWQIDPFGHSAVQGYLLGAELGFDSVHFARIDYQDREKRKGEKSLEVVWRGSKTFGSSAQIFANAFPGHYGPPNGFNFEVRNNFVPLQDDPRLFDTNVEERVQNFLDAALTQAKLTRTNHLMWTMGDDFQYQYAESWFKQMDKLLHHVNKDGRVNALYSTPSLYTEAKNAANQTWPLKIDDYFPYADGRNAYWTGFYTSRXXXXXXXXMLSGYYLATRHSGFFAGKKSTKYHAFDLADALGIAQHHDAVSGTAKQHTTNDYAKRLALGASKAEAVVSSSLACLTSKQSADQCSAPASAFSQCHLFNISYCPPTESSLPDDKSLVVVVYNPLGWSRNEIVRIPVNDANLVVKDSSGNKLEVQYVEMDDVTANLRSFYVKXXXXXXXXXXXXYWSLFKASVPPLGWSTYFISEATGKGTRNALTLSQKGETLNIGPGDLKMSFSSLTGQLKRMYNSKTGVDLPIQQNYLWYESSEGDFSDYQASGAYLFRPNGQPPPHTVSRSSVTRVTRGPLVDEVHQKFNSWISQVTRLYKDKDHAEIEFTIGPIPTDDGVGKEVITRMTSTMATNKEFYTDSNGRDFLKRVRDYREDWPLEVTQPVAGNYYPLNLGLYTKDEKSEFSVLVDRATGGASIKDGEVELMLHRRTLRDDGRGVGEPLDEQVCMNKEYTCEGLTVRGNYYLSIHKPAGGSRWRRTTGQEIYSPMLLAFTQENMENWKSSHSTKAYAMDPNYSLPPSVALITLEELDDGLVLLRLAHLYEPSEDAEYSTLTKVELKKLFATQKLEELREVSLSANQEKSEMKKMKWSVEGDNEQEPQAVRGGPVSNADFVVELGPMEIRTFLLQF

[10] = system: Helix pomatia; test: Inhibition of snail beta-mannosidase assessed as reduction of p-nitrophenol release using p-nitrophenyl glycoside as substrate at 1000 uM by spectrophotometric analysis relative to control
[11] = target: T2, Tissue alpha-L-fucosidase (Bos taurus, UniProt Q2KIM0); test: Inhibition of bovine kidney alpha-L-fucosidase assessed as reduction of p-nitrophenol release using p-nitrophenyl glycoside as substrate by spectrophotometric analysis
T2 sequence (Q2KIM0 whole entry): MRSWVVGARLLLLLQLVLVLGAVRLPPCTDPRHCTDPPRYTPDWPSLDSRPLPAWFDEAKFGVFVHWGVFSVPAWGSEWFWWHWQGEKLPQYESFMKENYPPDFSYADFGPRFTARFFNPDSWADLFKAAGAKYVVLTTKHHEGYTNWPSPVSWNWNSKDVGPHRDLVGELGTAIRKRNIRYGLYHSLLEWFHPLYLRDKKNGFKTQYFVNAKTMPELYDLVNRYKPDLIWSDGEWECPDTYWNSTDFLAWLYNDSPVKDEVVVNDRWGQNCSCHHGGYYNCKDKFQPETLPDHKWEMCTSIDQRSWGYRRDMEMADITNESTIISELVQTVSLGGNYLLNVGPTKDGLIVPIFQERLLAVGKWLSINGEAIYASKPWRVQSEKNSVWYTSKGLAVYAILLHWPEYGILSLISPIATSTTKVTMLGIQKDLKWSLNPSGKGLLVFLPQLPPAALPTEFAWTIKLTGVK

[12] = species on record: Sus scrofa; test: Inhibition of porcine kidney alpha/alpha-trehalase assessed as reduction of p-nitrophenol release using p-nitrophenyl glycoside as substrate at 1000 uM by spectrophotometric analysis relative to control
[13] = system: Aspergillus niger; test: Inhibition of Aspergillus niger amyloglucosidase assessed as reduction of p-nitrophenol release using p-nitrophenyl-glycoside as substrate at 1000 uM by spectrophotometric analysis relative to control
[14] = Inhibition of Penicillium decumbens alpha-L-rhamnosidase assessed as reduction of p-nitrophenol release using p-nitrophenyl-glycoside as substrate by spectrophotometric analysis
[15] = target: Beta-glucuronidase (Escherichia coli (strain K12), UniProt P05804); test: Inhibition of Escherichia coli beta-glucuronidase assessed as reduction of p-nitrophenol release using p-nitrophenyl-glycoside as substrate by spectrophotometric analysis
Sequence of Beta-glucuronidase (P05804 whole entry): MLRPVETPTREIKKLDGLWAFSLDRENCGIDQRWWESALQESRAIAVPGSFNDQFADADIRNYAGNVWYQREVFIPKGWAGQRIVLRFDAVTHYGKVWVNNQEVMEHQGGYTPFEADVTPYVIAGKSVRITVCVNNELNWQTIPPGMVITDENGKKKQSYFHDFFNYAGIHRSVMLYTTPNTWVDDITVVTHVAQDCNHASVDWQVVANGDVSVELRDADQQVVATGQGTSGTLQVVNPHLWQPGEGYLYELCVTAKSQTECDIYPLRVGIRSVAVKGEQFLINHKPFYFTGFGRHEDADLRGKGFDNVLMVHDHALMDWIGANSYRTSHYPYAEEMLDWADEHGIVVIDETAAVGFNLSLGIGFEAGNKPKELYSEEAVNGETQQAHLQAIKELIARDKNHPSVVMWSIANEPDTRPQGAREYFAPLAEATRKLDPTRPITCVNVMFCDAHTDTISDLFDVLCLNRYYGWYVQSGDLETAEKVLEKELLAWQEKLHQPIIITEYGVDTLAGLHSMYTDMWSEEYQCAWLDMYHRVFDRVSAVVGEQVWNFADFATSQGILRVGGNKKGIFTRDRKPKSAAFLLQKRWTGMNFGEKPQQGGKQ

[16] = species on record: Bos taurus; test: Inhibition of bovine liver beta-glucuronidase assessed as reduction of p-nitrophenol release using p-nitrophenyl-glycoside as substrate at 1000 uM by spectrophotometric analysis relative to control
[17] = target: Alpha-glucosidase (Saccharomyces cerevisiae S288c) (UniProt P53341+P38158+P07265); test: Inhibition of yeast alpha-glucosidase assessed as reduction of p-nitrophenol release using p-nitrophenyl glycoside as substrate at 1000 uM by spectrophotometric analysis relative to control; assay type: protein assay
[18] = system: Prunus dulcis; test: Inhibition of almond beta-glucosidase assessed as reduction of p-nitrophenol release using p-nitrophenyl glycoside as substrate at 1000 uM by spectrophotometric analysis relative to control
[19] = species on record: Bos taurus; test: Inhibition of bovine liver beta-glucosidase assessed as reduction of p-nitrophenol release using p-nitrophenyl glycoside as substrate at 1000 uM by spectrophotometric analysis relative to control
[20] = Inhibition of human lysosomal beta-glucosidase assessed as reduction of p-nitrophenol release using p-nitrophenyl glycoside as substrate by spectrophotometric analysis
[21] = target: T3, Tissue alpha-L-fucosidase (Bos taurus) (UniProt Q2KIM0); test: Inhibition of bovine kidney alpha-L-fucosidase assessed as reduction of p-nitrophenol release using p-nitrophenyl glycoside as substrate at 1000 uM by spectrophotometric analysis relative to control
T3 sequence (whole entry): T2 sequence (Q2KIM0 whole entry)

[22] = system: Penicillium decumbens; test: Inhibition of Penicillium decumbens alpha-L-rhamnosidase assessed as reduction of p-nitrophenol release using p-nitrophenyl-glycoside as substrate at 1000 uM by spectrophotometric analysis relative to control
[23] = target: Beta-glucuronidase (Escherichia coli (strain K12)) (UniProt P05804); test: Inhibition of Escherichia coli beta-glucuronidase assessed as reduction of p-nitrophenol release using p-nitrophenyl-glycoside as substrate at 1000 uM by spectrophotometric analysis relative to control
Sequence of Beta-glucuronidase (Escherichia coli (strain K12)) (P05804 whole entry, looked up): as the sequence (P05804 whole entry) above

[24] = Inhibition of bovine liver beta-glucuronidase assessed as reduction of p-nitrophenol release using p-nitrophenyl-glycoside as substrate by spectrophotometric analysis; set-up: species or system Bos taurus
[25] = species on record: Rattus norvegicus; test: Inhibition of rat intestinal maltase assessed as D-glucose release using maltose as substrate at pH 6.8 at 1000 uM by colorimetric method relative to control
[26] = target: Alpha-galactosidase (Coffea arabica, UniProt Q42656); test: Inhibition of coffee beans alpha-galactosidase assessed as reduction of p-nitrophenol release using p-nitrophenyl glycoside as substrate by spectrophotometric analysis
Sequence of Alpha-galactosidase (Q42656 whole entry): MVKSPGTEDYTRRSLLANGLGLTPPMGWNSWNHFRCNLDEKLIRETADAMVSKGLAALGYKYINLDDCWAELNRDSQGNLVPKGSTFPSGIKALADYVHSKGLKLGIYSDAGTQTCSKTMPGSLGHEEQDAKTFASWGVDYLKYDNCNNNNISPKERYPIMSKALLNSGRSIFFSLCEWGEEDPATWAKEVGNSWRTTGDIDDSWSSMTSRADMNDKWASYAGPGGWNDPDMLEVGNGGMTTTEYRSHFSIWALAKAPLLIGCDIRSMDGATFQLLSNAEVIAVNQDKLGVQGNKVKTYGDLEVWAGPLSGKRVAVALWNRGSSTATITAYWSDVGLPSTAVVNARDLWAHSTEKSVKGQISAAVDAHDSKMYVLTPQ

[27] = target: T4, Alpha-mannosidase (Canavalia ensiformis, UniProt C0HJB3); test: Inhibition of jack bean alpha-mannosidase assessed as reduction of p-nitrophenol release using p-nitrophenyl glycoside as substrate by spectrophotometric analysis
T4 sequence (C0HJB3 whole entry): T1 sequence (whole entry)

Structure (SMILES)	IC50 [3]	IC50 [4]	IC50 [5]	IC50 [6]	inhibition [7]	IC50 [8]	inhibition [9]	inhibition [10]	inhibition [12]	inhibition [13]	IC50 [14]	IC50 [15]	inhibition [16]	inhibition [17]	IC50 [20]	inhibition [21]	other results
CCCCCCCCCCCCCC1N[C@H](CO)[C@@H](O)[C@@H]1O (stereo partly drawn)																	IC50 [1]: 0.77 µM
Cl.OC[C@@H]1N[C@@H](CCCCCCCc2ccccc2)[C@H](O)[C@H]1O	11 µM	1.9 µM	206 µM	305 µM	12.1%	16 µM	14.7%	6.7%	5.6%	7.2%	409 µM	133 µM	41.5%				IC50 [2]: 802 µM; IC50 [11]: 91 µM
Cc1ccc(CCCCCC[C@@H](O)[C@@H]2N[C@@H](CO)[C@H](O)[C@H]2O)cc1	63 µM	13 µM			1.6%	46 µM	9.3%	0%	0%	11.3%				37.6%	25 µM	0%	inhibition [18]: 14.7%; inhibition [19]: 45.4%; inhibition [22]: 2.1%; inhibition [23]: 24.5%; IC50 [24]: 65 µM
OC[C@H]1N[C@H](CCCCCCCc2ccccc2)[C@@H](O)[C@H]1O	85 µM		464 µM	64 µM		22 µM		3.6%	3.5%	6%	313 µM	75 µM	12.7%	21.1%	5.2 µM	32.7%	inhibition [25]: 43.3%; IC50 [26]: 41 µM; IC50 [27]: 274 µM

— ChEMBL document CHEMBL5331098, “Nanomolar β-glucosidase and β-galactosidase inhibition by enantiomeric α-1-C-alkyl-1,4-dideoxy-1,4-imino-arabinitol derivatives” (Eur J Med Chem, 2023)
